Source: PubChem BioAssay (NCI)
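Growth conditions: 96-well plates. Treatment: test compound, 48 hours, 5 concentrations. Analysis: linear interpolation between bracketing concentrations; unreached endpoints set to highest concentration. The concentration for 50% growth inhibition is given as GI50. Definition used: TGI = concentration required for complete inhibition of growth.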

Columns and labels:
Test in all cases: NCI tumour cell line growth inhibition, 48 h
[1] = tested on: 786-0 renal
[2] = tested on: A498 renal
[3] = tested on: A549 NSCLC
[4] = tested on: ACHN renal
[5] = tested on: BT-549 breast
[6] = tested on: CAKI-1 renal
[7] = tested on: CCRF-CEM leukemia
[8] = tested on: COLO 205 colon
[9] = tested on: DU-145 prostate
[10] = tested on: EKVX NSCLC
[11] = tested on: HCC-2998 colon
[12] = tested on: HCT-116 colon
[13] = tested on: HCT-15 colon
[14] = tested on: HL-60(TB) leukemia
[15] = tested on: HOP-92 NSCLC
[16] = tested on: HS 578T breast
[17] = tested on: HT29 colon
[18] = tested on: IGROV1 ovarian
[19] = tested on: K-562 leukemia
[20] = tested on: KM12 colon
[21] = tested on: LOX IMVI melanoma
[22] = tested on: M14 melanoma
[23] = tested on: MALME-3M melanoma
[24] = tested on: MCF7 breast
[25] = tested on: MDA-MB-231 breast
[26] = tested on: MDA-MB-435
[27] = tested on: MOLT-4 leukemia
[28] = tested on: NCI-H226 lung
[29] = tested on: NCI-H23 lung
[30] = tested on: NCI-H460 lung
[31] = tested on: NCI-H522 lung
[32] = tested on: NCI/ADR-RES ovarian
[33] = tested on: OVCAR-3 ovarian
[34] = tested on: OVCAR-4 ovarian
[35] = tested on: OVCAR-5 ovarian
[36] = tested on: OVCAR-8 ovarian
[37] = tested on: PC-3 prostate
[38] = tested on: RPMI-8226 leukemia
[39] = tested on: RXF 393 renal
[40] = tested on: SF-268 CNS
[41] = tested on: SF-539 CNS
[42] = tested on: SK-MEL-2 melanoma
[43] = tested on: SK-MEL-28 melanoma
[44] = tested on: SK-MEL-5 melanoma
[45] = tested on: SK-OV-3 ovarian
[46] = tested on: SN12C renal
[47] = tested on: SNB-19 CNS
[48] = tested on: SNB-75 CNS
[49] = tested on: SR leukemia
[50] = tested on: SW-620 colon
[51] = tested on: T-47D breast
[52] = tested on: TK-10 renal
[53] = tested on: U251 CNS
[54] = tested on: UACC-257 melanoma
[55] = tested on: UACC-62 melanoma
[56] = tested on: UO-31 renal

SMILES: COc1ccc(-n2c(N)c(C(=O)NCCN3CCOCC3)c3nc4ccccc4nc32)cc1OC
- GI50 [1]: 2.02 µM
- TGI [1]: 79.2 µM
- GI50 [2]: 7.98 µM
- TGI [2]: > 100 µM
- GI50 [3]: 6.08 µM
- TGI [3]: > 100 µM
- GI50 [4]: 4.16 µM
- TGI [4]: > 100 µM
- GI50 [5]: 27.6 µM
- TGI [5]: > 100 µM
- GI50 [6]: 4.62 µM
- TGI [6]: > 100 µM
- GI50 [7]: 5.15 µM
- TGI [7]: > 100 µM
- GI50 [8]: 6.97 µM
- TGI [8]: > 100 µM
- GI50 [9]: 9.81 µM
- TGI [9]: > 100 µM
- GI50 [10]: 40.2 µM
- TGI [10]: > 100 µM
- GI50 [11]: 94.3 µM
- TGI [11]: > 100 µM
- GI50 [12]: 3.49 µM
- TGI [12]: > 100 µM
- GI50 [13]: 15 µM
- TGI [13]: > 100 µM
- GI50 [14]: 21.8 µM
- TGI [14]: > 100 µM
- GI50 [15]: 20.3 µM
- TGI [15]: > 100 µM
- GI50 [16]: 9.27 µM
- TGI [16]: > 100 µM
- GI50 [17]: 5.8 µM
- TGI [17]: > 100 µM
- GI50 [18]: 4.92 µM
- TGI [18]: 67.4 µM
- GI50 [19]: 2.96 µM
- TGI [19]: > 100 µM
- GI50 [20]: 8.26 µM
- TGI [20]: > 100 µM
- GI50 [21]: 5.69 µM
- TGI [21]: > 100 µM
- GI50 [22]: 15.1 µM
- TGI [22]: > 100 µM
- GI50 [23]: 6.32 µM
- TGI [23]: 71.8 µM
- GI50 [24]: 4.13 µM
- TGI [24]: > 100 µM
- GI50 [25]: 32.4 µM
- TGI [25]: > 100 µM
- GI50 [26]: 12.8 µM
- TGI [26]: > 100 µM
- GI50 [27]: 2.87 µM
- TGI [27]: 27.4 µM
- GI50 [28]: 11.4 µM
- TGI [28]: > 100 µM
- GI50 [29]: 38.3 µM
- TGI [29]: > 100 µM
- GI50 [30]: 3.28 µM
- TGI [30]: > 100 µM
- GI50 [31]: 8.07 µM
- TGI [31]: > 100 µM
- GI50 [32]: 36 µM
- TGI [32]: > 100 µM
- GI50 [33]: 20.3 µM
- TGI [33]: > 100 µM
- GI50 [34]: 68.5 µM
- TGI [34]: > 100 µM
- GI50 [35]: > 100 µM
- TGI [35]: > 100 µM
- GI50 [36]: 6.94 µM
- TGI [36]: > 100 µM
- GI50 [37]: 11.7 µM
- TGI [37]: 87.3 µM
- GI50 [38]: 3.36 µM
- TGI [38]: > 100 µM
- GI50 [39]: 34.1 µM
- TGI [39]: > 100 µM
- GI50 [40]: 5.39 µM
- TGI [40]: > 100 µM
- GI50 [41]: 7.8 µM
- TGI [41]: > 100 µM
- GI50 [42]: 2.94 µM
- TGI [42]: 42.8 µM
- GI50 [43]: 32.1 µM
- TGI [43]: > 100 µM
- GI50 [44]: 3.22 µM
- TGI [44]: > 100 µM
- GI50 [45]: 85.5 µM
- TGI [45]: > 100 µM
- GI50 [46]: 5.29 µM
- TGI [46]: > 100 µM
- GI50 [47]: 10.9 µM
- TGI [47]: > 100 µM
- GI50 [48]: 38.7 µM
- TGI [48]: > 100 µM
- GI50 [49]: 0.63 µM
- TGI [49]: 22.3 µM
- GI50 [50]: 4.07 µM
- TGI [50]: > 100 µM
- GI50 [51]: 25 µM
- TGI [51]: > 100 µM
- GI50 [52]: 31.9 µM
- TGI [52]: > 100 µM
- GI50 [53]: 8.68 µM
- TGI [53]: > 100 µM
- GI50 [54]: 34.4 µM
- TGI [54]: > 100 µM
- GI50 [55]: 9.82 µM
- TGI [55]: > 100 µM
- GI50 [56]: 3.53 µM
- TGI [56]: 62.1 µM
